From patent US11667949B2, “Reporter construct and biosensor for interferon second messenger 2-5A” (The Trustees of Princeton University, priority 2018, dated 2023)
Like-named read-outs stand apart in the source and are kept apart here. Numbered stars: 1 amine (or outer) side, 2 acyl side, 3 side chain; on linkers, the order of the positions; unused ones are H or OH. Bridge positions count the residues as written; N and C are the ends. Square brackets hold non-standard residues; d marks the D form. Peptide text beside a SMILES is read from it. I, II: the chains in the order shown. Actinocin(9to1) = Cc1c2oc3c(C)ccc(C(=O)[*:1])c3nc-2c(C(=O)[*:2])c(N)c1=O; NMeV = CN[C@H](C(=O)O)C(C)C; Sar = CNCC(=O)O

Legend:
[1] = tested on: A549 cells; assay: Live cell 2-5A measurements in A549 cells stably expressing FLAG-V6 biosensor; format: cell-based, human; settings: pre-treatment before poly-IC
Protocol: Live cell 2-5A measurements in stable cell lines expressing V6 or V6-Y312A reporters: A549 or HeLa cells stably expressing V6 or V6-Y312A control reporters were seeded at a density of 1·10^4 /well on TC-treated, clear flat bottom white 96-well plates. Before transfection with poly-IC, cells were pre-treated with 100 μM D-luciferin ethyl ester (1% DMSO) (f/c) (Marker Gene Technologies). After one hour of substrate pre-treatment, a poly-IC/lipofectamine complex (1 μg/mL Poly-IC+0.5 μL Lipofectamine 2000 in a final volume of 100 μL) was added to the cells along with a second addition of 100 μM D-luciferin and HEPES (pH 7.5; 20 mM f/c). Dilutions of poly-IC were made by diluting the poly-IC/lipofectamine complexes. Luminescence measurements were taken in repeat-mode using plate reader at time intervals shown on the figures. After three hours, fresh D-luciferin ethyl ester (100 μM) was re-supplied at every hour to ensure excess reporter substrate. Luminescence acquisition time was one minute per well. For IFN-β pre-treatment, a dose of 1000 U/mL (f/c) was used 24 hours before poly-IC treatment.

[2] = tested on: HeLa cells; settings: stable monoclonal HeLa reporter cells
Protocol: In an additional experiment, HeLa cells were stably transduced with a lentiviral construct containing the reporter. A monoclonal population of reporter expressing cells was then selected by limiting serial dilution. For reporter assay, these monoclonal cells were seeded at a cell density of 2×10^5 cells per well on 96 well plates. After the cells adhered to the plates (in approximately 6 hours), the cells were pre-treated with 100 uM D-luciferin ethyl ester (1% DMSO) (f/c). After one hour of substrate pre-treatment, poly IC-Lipofectamine complexes were added to the cells along with a second addition of 100 uM D-luciferin substrate. Luminescence measurements were taken on Repeated mode in the plate reader: every 15 minutes for the course of three hours. Luminescence acquisition time: 1 minute/well.

[3] = tested on: HeLa cells; assay: Reporter assay in live cells transfected with V6 or Y312A V6 constructs; format: cell-based, human
Protocol: Reporter assay in live cells: NLS and NES tag sequences cloned in the reporter immediately following the FLAG tag were […] (SEQ ID NO: 4) and […] (SEQ ID NO: 5), respectively. […] These 96 well plates were clear bottom and white for optimum luminescence readings. […] Luminescence acquisition time: 1 minute/well.

[4] = tested on: A549 cells; assay: Nascent protein synthesis by puromycin pulse labeling; format: cell-based, human
Protocol: Ribopuromycilation and ^35S labeling to monitor nascent translation: To generate puromycin-tagged nascent peptides, human cells were treated with 0.1-1 μg/mL of poly-IC for times specified on the figures, after which the growth media was supplemented with 10 μg/mL puromycin (Invitrogen). Puromycin pulse lasted for 5 min. Cells were trypsinized and harvested in NuPAGE LDS sample buffer for western blot analyses. Proteins were separated by 10% BisTris PAGE (NuPAGE), and transferred on PVDF membranes (Life Technologies). The membrane was stained with Ponceau to normalize for sample loading, then washed and blocked with 5% non-fat dry milk in TBST buffer. The membranes were probed with 1:1000 mouse anti-puromycin antibody (EMD Millipore) that binds to de novo synthesized proteins, followed by horseradish peroxidase-conjugated goat anti-mouse secondary antibody (1:10,000, Jackson ImmunoResearch). Metabolic labeling with ^35S was conducted using the following procedure. After cell treatment with poly-IC, media was changed to methionine-free RPMI+10% FBS supplemented with 11 μCi EASY TAG™ EXPRESS35S Protein Labeling Mix (Perkin Elmer). Cellular proteins were resolved by 10% BisTris PAGE (NuPAGE) and analyzed by phosphorimaging.

[5] = tested on: HeLa cells; settings: poly IC 6 hours, <3 kDa flow-through, V6 reporter in vitro
Protocol: In vitro Luminescence assays: The luminescence reactions contained 20 mM Hepes (pH7.4), 100 mM NaCl, 5 mM MgCl2, 5% (vol/vol) glycerol, 1 mM DTT, 3 mM ATP, 250 uM Coenzyme A hydrate (Sigma Aldrich). After adding specified concentrations of reporter protein and 2-5A (p2-5A3, pA3), D-luciferin, Potassium salt (Gold Biotechnology) was added at a final concentration of 400 uM. The reactions were allowed to stabilize for 2 minutes and immediately after luminescence measurements were taken on a plate reader (Berthold Technologies). Acquisition time for the reaction was set to be 10 seconds.
2-5A extraction: HeLa cells treated for 6 hours with 1 ug/ml polyIC were lysed with RIPA (Thermo Fisher Scientific) buffer along with 0.5 mM PMSF protease inhibitor. The lysate was spun down at 12000 g for 10 minutes at 4° C. The supernatant was passed through a 3 KDa centrifugal filter to collect small nucleic acids. An equivalent amount of RNA from mock or polyIC treated sample was added to the luminescence assay.

[6] = tested on: A549 cells; assay: Secreted IFN detection by qPCR in conditioned media; format: cell-based, human
Protocol: qRT-PCR analysis: Cells were harvested in 350 μL RLT buffer (Qiagen) and RNA was purified according to the RNeasy protocol (Qiagen). cDNA was prepared using oligo-dT and a High Capacity RNA to cDNA kit (Applied Biosystems). qPCR was performed using the Power SYBR green PCR mix in a 96 well format on StepOnePlus qPCR instrument (Life Technologies). qPCR primers used in this work were from Integrated DNA Technologies and are available via the manufacturer if not specifically recited in the Table below.
Secreted IFN detection by qPCR in conditioned media: A549 WT and RNase L knock out (KO) cells in 12-well plates were transfected with 1 μg/mL poly-IC and lipofectamine 2000 for 0.5, 2 or 6 hours. At the end of the time course, cells were washed four times with 1 mL of growth medium (RPMI+10% FBS) to remove residual poly IC. After the washes, fresh 1 mL medium was added and the cells were kept in fresh media for one hour to allow for protein secretion. Treatments of naive cells with conditioned media were done in a separate 12-well plate and using cells seeded 1 day before the analysis. Naïve cell media was replaced with 1 mL of the conditioned medium from above. Cells were grown in the conditioned media for 16 hours and harvested in 300 μL RLT (Qiagen). For pulse-chase experiments in FIG. 9C, 10 μM anisomycin was added 3 hours after poly-IC addition. Anisomycin level was additionally maintained during the last hour allocated for IFN secretion into fresh media.

[7] = target: T1, RNase L (Homo sapiens, UniProt Q05823); settings: cited from earlier work
T1 sequence (Q05823 1-741): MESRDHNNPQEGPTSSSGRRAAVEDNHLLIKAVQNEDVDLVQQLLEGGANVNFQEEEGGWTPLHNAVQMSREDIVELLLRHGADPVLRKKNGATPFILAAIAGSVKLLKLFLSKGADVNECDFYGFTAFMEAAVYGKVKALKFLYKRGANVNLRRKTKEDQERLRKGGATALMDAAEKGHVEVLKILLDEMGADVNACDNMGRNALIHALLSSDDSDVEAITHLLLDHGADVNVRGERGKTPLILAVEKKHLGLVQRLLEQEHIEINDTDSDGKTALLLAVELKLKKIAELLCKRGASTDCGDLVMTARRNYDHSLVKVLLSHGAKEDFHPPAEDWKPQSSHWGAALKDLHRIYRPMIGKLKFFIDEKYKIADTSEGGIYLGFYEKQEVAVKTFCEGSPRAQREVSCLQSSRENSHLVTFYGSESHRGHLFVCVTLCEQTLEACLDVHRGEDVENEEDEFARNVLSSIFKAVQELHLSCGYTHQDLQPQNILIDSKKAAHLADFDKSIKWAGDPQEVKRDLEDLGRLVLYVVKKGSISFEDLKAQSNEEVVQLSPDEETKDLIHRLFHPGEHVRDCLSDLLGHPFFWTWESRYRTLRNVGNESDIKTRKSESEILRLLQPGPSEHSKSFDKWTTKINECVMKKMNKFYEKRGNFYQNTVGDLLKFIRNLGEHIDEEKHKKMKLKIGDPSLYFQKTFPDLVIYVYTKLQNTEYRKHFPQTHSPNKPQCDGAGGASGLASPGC

Cc1c2oc3c(C)ccc(C(=O)N[C@@H]4C(=O)N[C@H](C(C)C)C(=O)N5CCC[C@H]5C(=O)N(C)CC(=O)N(C)[C@@H](C(C)C)C(=O)O[C@@H]4C)c3nc-2c(C(=O)N[C@@H]2C(=O)N[C@H](C(C)C)C(=O)N3CCC[C@H]3C(=O)N(C)CC(=O)N(C)[C@@H](C(C)C)C(=O)O[C@@H]2C)c(N)c1=O [Actinomycin D] (I: T[dV]P[Sar][NMeV] / II: T[dV]P[Sar][NMeV]; ester I:1-I:C, II:1-II:C; linker I:N-II:N via Actinocin(9to1))
OAS/RNase L activation after pre-treatment with transcription inhibitor [1]: not inhibited

poly-Inosine/poly-Cytidine [poly IC]
2-5A build-up, fold change with poly IC vs without poly IC ([2]; 30 mins): 3.7 fold | maximum fold change of reporter ([2]; 3.5 hours after poly IC treatment): 28 fold | 2-5A build-up, fold, poly IC treated vs untreated cells ([3]; 30 minutes): 2.4 fold | maximum fold change of reporter ([3]; 3 hours post poly IC treatment): 30 fold | global translation ([4]; WT A549 cells, before ISG induction): halted global translation | stimulation of the reporter by nucleic acids from poly IC treated vs mock treated cells [5]: roughly 8 fold | ISG induction by conditioned media ([6]; media of poly I:C-treated WT and RNase L−/− cells, time points beyond translational arrest): two orders of magnitude

2′-5′-linked oligoadenylates [2-5A]
attenuation of basal cell-wide translation ([4]; 2-5A activated RNase L): more than 1,000 fold | affinity for latent RNase L [7]: sub-nanomolar

COc1ccc(C[C@H]2NC[C@H](O)[C@H]2OC(C)=O)cc1 [anisomycin]
IFN production (IFN activity in the media) ([6]; 10 μM anisomycin added 3 hours after poly-IC, before the IFN response): blocked IFN production | effect on ISG mRNAs ([6]; naïve cells, control experiment): mild stimulatory effect
